Source: patent US11583529B2, “Treatment of inflammatory disorders” (Aldeyra Therapeutics, Inc., priority 2017, dated 2023)
“Also recorded” adds a separate entry of the source.

Tests used:
[1] = tested on: rat model of endotoxin induced uveitis; assay: Rat model of endotoxin-induced uveitis (EIU), topical or intravitreal treatment; type: in vivo, female Lewis rats; conditions: for overall ophthalmic examination score: vs control (BSS) topical
Experimental: An in vivo study was conducted to assess the efficacy of intravitreal administration of compound I-22 in a rat model of endotoxin induced uveitis, one of the most appropriate models for the study of NIU (Smith et al., 1998) (Toxikon Study 16-04078-N1). Ocular inflammation was induced in female Lewis rats (n=10/group) by a single foot pad injection of LPS (100 μL) (Herbort et al., 1988, Graefe's Arch Clin Exp Ophthalmol. 226:553-558). Compound I-22 (5 mg/mL) was administered intravitreally into each eye (25 μg/eye), or topically to both eyes at 1, 3, 7, 10, and 17 hours post-LPS injection, within one hour of LPS administration. Balanced salt solution (BSS) served as a vehicle control. Retinal exams were performed prior to study start and six and 24 hours following LPS administration and scored using a Combined Draize and McDonald Shadduck scoring system, based on assessments of: retinal vasculopathy and retinal hemorrhage, exudate, and detachment.
Endotoxin-induced uveitis was created by a single injection of lipopolysaccharide (LPS; 100 μL) into one hind footpad. Ten (10) female Lewis rats per group received control (balanced salt solution, BSS) or test article (compound I-22) topically to both eyes at 1, 3, 7, 10, and 17 hours post-LPS injection. At each dosing time point, two drops (5 μL each, separated by approximately two minutes, for a total of 10 μL/eye/dose) were instilled into each eye of the animals. Ten female Lewis rats per group received control (BSS) or compound I-22 by a single intravitreal injection (IVT) in each eye at one hour post-LPS injection. Each eye received 5 μL of vehicle or test article.
Animals were anesthetized with isoflurane 1-3.5% for ophthalmic examinations. Both eyes of each animal were evaluated pre-dose using slit-lamp biomicroscopy, and an indirect ophthalmoscope or a surgical microscope, according to the Combined Draize and McDonald-Shadduck Scoring System, and the Ocular Posterior Segment Scoring Scale. All pupils were dilated with 1% tropicamide ophthalmic solution before ocular examination. Only rats showing no signs of eye irritation, ocular defects or preexisting corneal injury were used in the study.
Ophthalmic examinations were performed on both eyes of each animal approximately six and 24 hours following LPS administration, using slit-lamp biomicroscopy and a surgical microscope or via indirect ophthalmoscopy. Pupils were dilated with 1% Tropicamide Ophthalmic Solution before ophthalmic examinations.
Quantitative, continuous data from this study were analyzed using one-way ANOVA. Alternative or additional statistical methods were used as necessary.
In the same study, the efficacy of compound 1-5 was compared to that of compound 1-22. Compound 1-5 was topically administered topically to the eye at hours 1, 3, 7, 10, and 17, after LPS induction, or by a single intravitreal (IVT) injection one hour after LPS induction (n=10 per group), as was compound I-22. Ocular exams were performed 6 and 24 hours after LPS injection. Anterior segments were scored using a combined Draize and McDonald-Shadduck scoring system, and posterior segments were scored using 0 to 1 (vitreous, optic disc, retinal vasculature) and 0 to 4 (retinal and choroidal hemorrhage, exudation, and detachment) scales. Statistical significance from vehicle control was determined by ANOVA, followed by Tukey's post hoc test.

[2] = tested on: dextran sulfate sodium (DSS)-induced acute ulcerative colitis (UC); assay: 7-Day DSS-induced acute ulcerative colitis model; type: in vivo, female Swiss Webster mice; conditions: vs PO vehicle
[3] = intravitreal administration, vs vehicles
[4] = 200 mg/kg PO BID, Days 0 through 6
[5] = 200 mg/kg PO BID, Days −3 through 6

CC(C)(O)c1cc2oc(-c3ccccc3)nc2cc1N [Compound I-22]
ocular exam scores ([1]; IVT, vs vehicle): significantly improved
sums of the mean retinal examination scores ([1]; IVT, vs vehicle controls (FIG. 2)): significantly reduced
Total ocular inflammation [1, 3]: lower
anterior chamber inflammation [1, 3]: lower
retina-choroid inflammation [1, 3]: lower
signs of inflammation in the rat EIU model ([1]; overall): reduced
response in the EIU model ([1]; overall, I-22 compared with I-5): slightly more positive response
ophthalmic examination scores ([1]; single IVT injection (25 μg/eye), approximately six and 24 hours post LPS, vs control IVT): significantly lower
ocular exam scores ([1]; topical (TO), 6 hours and 24 hours, vs vehicle): significantly improved
Total ocular inflammation score ([1]; topical (TO), vs vehicle): lower
anterior chamber inflammation score ([1]; topical (TO), vs vehicle): lower
retina-choroid inflammation score ([1]; topical (TO), vs vehicle): lower
overall ophthalmic examination score ([1]; topical at 1, 3, 7, 10, 17 h post-LPS, approximately six hours post LPS): significantly lower; also recorded: statistically lower
overall ophthalmic examination score ([1]; topical, approximately 24 hours post LPS): significantly lower
Body weights ([2]; 200 mg/kg PO BID (Groups 5, 6, 7, 8, 9, and 10)): did not differ significantly
Colon lengths, increase in the direction of normal [2, 4]: 41%
PMN percentages in the proximal colon [2, 4]: significantly increased
distal colon edema, reduction [2, 4]: 78%
distal colon hyperplasia, reduction [2, 4]: 86%
distal colon mucosal thickness, reduction [2, 4]: 66%
full colon edema, reduction [2, 4]: 62%
proximal colon edema, reduction [2, 4]: 43%
full colon edema, reduction [2, 5]: 48%
proximal colon edema, reduction [2, 5]: 60%
proximal colon mucosal thickness, reduction [2, 5]: 58%
DAI stool consistency scores ([2]; Day 2, 200 mg/kg PO BID, Days 0 through 6): significantly reduced
